Assay results as given in US8466195B2, “Methods and compositions for treating complications of diabetes and vascular diseases using flavones” (Salk Institute for Biological Studies, priority 2009, dated 2013).

How the values were obtained:
Type in all cases: cell-based
[1] = tested on: HT22 cells; test: Oxidative glutamate toxicity (MTT cell viability); details: Mus musculus, HT-22; 5 mM glutamate, 24 hours, MTT; read-out: EC50 oxid. glut. tox.
Method: Cell viability was determined by a modified version of 3-(4,5-dimethylthiazol-2-yl)-2,5-diphenyl tetrazolium bromide (MTT) assay based on the standard procedure (Hansen M B et al. J. Immunol. Methods 119:203-210, 1989). Briefly, cells were seeded onto 96-well microtiter plates at a density of 5×10^3 cells per well. The next day, the medium was replaced with DMEM supplemented with 7.5% DFCS and the cells were treated with the different fisetin derivatives alone or in the presence of 5 mM glutamate. Twenty four hours later, the medium in each well was aspirated and replaced with fresh medium containing 2.5 μg/ml MTT. After 4 hours of incubation at 37° C., cells were solubilized with 100 μA of a solution containing 50% dimethylformamide and 20% SDS (pH 4.7). The absorbance at 570 nm was measured on the following day with a microplate reader (Molecular Devices). Results obtained from the MTT assay correlated directly with the extent of cell death as confirmed visually. Controls employing wells without cells were used to determine the effects of the agents upon the assay chemistry.
As shown in panel (A) of FIG. 3, HT22 cells were untreated (ct) or treated with 10 μM fisetin (fis) in the absence of presence of 5 mM glutamate for 24 hr and GSH was measured enzymatically and normalized to protein. As shown in panel (B) of FIG. 3, HT22 cells in 96-well plates were treated with 5 mM glutamate and the indicated concentrations of fisetin. MTT reduction was measured after 24 hr.

[2] = tested on: cells treated with 20 μM iodoacetic acid (IAA); test: In vitro ischemia (iodoacetic acid, MTT cell viability); details: 20 μM IAA 2 h, MTT 20 h later
Method: Briefly, cells were seeded onto 96-well microtiter plates at a density of 5×10^3 cells per well. The next day, the medium was replaced with DMEM supplemented with 7.5% DFCS and the cells were treated with 20 μM iodoacetic acid (IAA) alone or in the presence of the different fisetin derivatives. After 2 h the medium in each well was aspirated and replaced with fresh medium without IAA but containing the fisetin derivatives. 20 h later, the medium in each well was aspirated and replaced with fresh medium containing 2.5 μg/ml MTT. After 4 h of incubation at 37° C., cells were solubilized with 100 μl of a solution containing 50% dimethylformamide and 20% SDS (pH 4.7). The absorbance at 570 nm was measured on the following day with a microplate reader (Molecular Devices). Results obtained from the MTT assay correlated directly with the extent of cell death as confirmed visually. Controls included compound alone to test for toxicity and compound with no cells to test for interference with the assay chemistry.

[3] = tested on: HT-22 nerve cells; test: HT-22 nerve cells exposed to glutamate: MG adducts and viability
Method: HT-22 nerve cells were exposed to 0.5 mM glutamate and Glo-1 expression monitored at 8 and 24 hrs. In panel (B) of FIG. 2, Fisetin is shown to prevent both cell death and protein glycation. HT-22 cells were exposed to 5 mM glutamate in the presence or absence of 2 μM fisetin. MG adducts were determined by Western blotting 8 hrs after glutamate exposure and viability after 24 hrs. Actin is at the bottom of the blot. In panel (C) of FIG. 2, the Glo-1 inhibitor s-p-bromobenzylglutathione […] is shown to potentiate cell death. HT-22 cells were exposed to 1 mM glutamate plus or minus 10 or 20 μM BBGD.

Q: How did the EC50 [1] turn out when `COc1cc2oc(-c3ccc(O)c(O)c3)cc(=O)c2cc1OC` was run?
A: < 10 µM

Q: What about the EC50 [2] of the same compound?
A: < 1 µM

Q: What does the source list for `O=c1c(O)c(-c2ccc(O)c(O)c2)oc2cc(O)ccc12` [drawing 10]?
A: EC50 [1]: < 10 µM; EC50 [2]: > 1 µM

Q: Which results are given for `CCOc1ccc(-c2oc3cc(C)c(C)cc3c(=O)c2O)cc1OCC`?
A: EC50 [1]: < 10 µM; EC50 [2]: < 1 µM

Q: `O=c1cc(-c2ccc(O)c(O)c2)oc2cc(O)c(O)cc12` was tested. Which EC50 [1] did it give?
A: > 10 µM

Q: What about the EC50 [2] of the same compound?
A: > 1 µM

Q: For `Cc1cc2oc(-c3ccc(O)c(O)c3)c(O)c(=O)c2cc1C`, which EC50 [1] is on record?
A: < 10 µM

Q: What about the EC50 [2] of the same compound?
A: < 1 µM

Q: What does the source list for `N[C@@H](CCC(=O)N[C@@H](CSCc1ccc(Br)cc1)C(=O)NCC(=O)O)C(=O)O` [BBGD, s-p-bromobenzylglutathione, reference compound]?
A: toxicity in the absence of glutamate ([3]; 20 μM BBGD, no glutamate): only mildly toxic; cell death in the presence of glutamate ([3]; 1 mM glutamate plus 10 or 20 μM BBGD): greatly potentiates cell death

Q: For `CCOc1ccc(-c2cc(=O)c3cc(C)c(C)cc3o2)cc1OCC`, which EC50 [2] is on record?
A: > 1 µM

Q: What does the source list for `Cc1cc2oc(-c3ccc(O)c(O)c3)cc(=O)c2cc1C`?
A: EC50 [1]: < 10 µM; EC50 [2]: < 1 µM

Q: Which results are given for `COc1cc2oc(-c3ccc(O)c(O)c3)c(O)c(=O)c2cc1OC`?
A: EC50 [1]: < 10 µM; EC50 [2]: > 1 µM

Q: `COc1cccc(-c2oc3cc(OC)c(OC)cc3c(=O)c2O)c1` was tested. Which EC50 [1] did it give?
A: < 10 µM

Q: What about the EC50 [2] of the same compound?
A: 1 µM

Q: Which results are given for `O=c1c(O)c(-c2ccc(O)c(O)c2)oc2cc(O)c(O)cc12`?
A: EC50 [1]: < 10 µM; EC50 [2]: > 1 µM

Q: With `CCOc1ccc(-c2oc3cc(OC)c(OC)cc3c(=O)c2O)cc1OCC` as the compound, how does the EC50 [1] read?
A: < 10 µM

Q: What about the EC50 [2] of the same compound?
A: > 1 µM
